Reference: ChEMBL document CHEMBL1138920, “Putative therapeutic agents for the learning and memory deficits of people with Down syndrome” (Bioorg Med Chem Lett, 2006)
Calls of active or inactive are those of the source. The calls are words filed in the database; no cut-off is given here.

target: CaM kinase II (Homo sapiens) (UniProt Q13557+Q13555+Q13554+Q9UQM7); assay: Activity against CaMK2 at 10 uM in the presence of 100 uM ATP relative to control; format: protein assay

Activity [%] | SMILES
98 | COc1cccc(NC(=O)Nc2nnc(-c3ccncc3)s2)c1
72 | COc1cc(/C=C2\C(=O)NN(c3ccc(Cl)c(Cl)c3)C2=O)ccc1O

target: Cyclin-dependent kinase 2/cyclin A (Homo sapiens) (UniProt P24941+P20248+P78396); assay: Activity against CDK2/cyclinA at 10 uM in the presence of 100 uM ATP relative to control; format: protein-complex assay

Activity [%] | SMILES
96 | COc1cccc(NC(=O)Nc2nnc(-c3ccncc3)s2)c1
90 | COc1cc(/C=C2\C(=O)NN(c3ccc(Cl)c(Cl)c3)C2=O)ccc1O

target: Cyclin-dependent kinase 5/CDK5 activator 1 (Homo sapiens) (UniProt Q00535+Q15078); assay: Activity against CDK5/p35 at 10 uM in the presence of 100 uM ATP relative to control; format: protein-complex assay
Sequence (Q00535 whole entry): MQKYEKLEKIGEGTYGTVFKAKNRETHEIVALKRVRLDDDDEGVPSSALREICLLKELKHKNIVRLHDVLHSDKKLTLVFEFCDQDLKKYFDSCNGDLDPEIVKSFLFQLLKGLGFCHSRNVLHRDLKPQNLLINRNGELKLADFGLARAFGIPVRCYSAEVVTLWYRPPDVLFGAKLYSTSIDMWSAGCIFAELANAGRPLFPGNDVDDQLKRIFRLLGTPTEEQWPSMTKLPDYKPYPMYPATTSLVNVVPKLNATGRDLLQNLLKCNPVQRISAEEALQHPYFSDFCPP
Sequence (Q15078 99-307 partner limits assumed): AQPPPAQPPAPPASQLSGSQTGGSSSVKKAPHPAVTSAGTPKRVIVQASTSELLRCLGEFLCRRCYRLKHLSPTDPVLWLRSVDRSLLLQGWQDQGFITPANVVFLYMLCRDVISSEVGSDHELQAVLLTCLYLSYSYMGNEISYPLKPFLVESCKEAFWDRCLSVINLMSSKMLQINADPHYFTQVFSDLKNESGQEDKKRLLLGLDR

Activity [%] | SMILES
104 | COc1cccc(NC(=O)Nc2nnc(-c3ccncc3)s2)c1
99 | COc1cc(/C=C2\C(=O)NN(c3ccc(Cl)c(Cl)c3)C2=O)ccc1O

target: Casein kinase II (Homo sapiens) (UniProt P67870+P68400+P19784); assay: Activity against CK2 at 10 uM in the presence of 100 uM ATP relative to control; format: protein-complex assay

Activity [%] | SMILES
110 | COc1cccc(NC(=O)Nc2nnc(-c3ccncc3)s2)c1
61 | COc1cc(/C=C2\C(=O)NN(c3ccc(Cl)c(Cl)c3)C2=O)ccc1O

target: Dual specificity protein kinase CLK3 (Homo sapiens) (UniProt P49761); assay: Activity against CLK3 at 10 uM in the presence of 100 uM ATP relative to control
Sequence (P49761 whole entry, looked up): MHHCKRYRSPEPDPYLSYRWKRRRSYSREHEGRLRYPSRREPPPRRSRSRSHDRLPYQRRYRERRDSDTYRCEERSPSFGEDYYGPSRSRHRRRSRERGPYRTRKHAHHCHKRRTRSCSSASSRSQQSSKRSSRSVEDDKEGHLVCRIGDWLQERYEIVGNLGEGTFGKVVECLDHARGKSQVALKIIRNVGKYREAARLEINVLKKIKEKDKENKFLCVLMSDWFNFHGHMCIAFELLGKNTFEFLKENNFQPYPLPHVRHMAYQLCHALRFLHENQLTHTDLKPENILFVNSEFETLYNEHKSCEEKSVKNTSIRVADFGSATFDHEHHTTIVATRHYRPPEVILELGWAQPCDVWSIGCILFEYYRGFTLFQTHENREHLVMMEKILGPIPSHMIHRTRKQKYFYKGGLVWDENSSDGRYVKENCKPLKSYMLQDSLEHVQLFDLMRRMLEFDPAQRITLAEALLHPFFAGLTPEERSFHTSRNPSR

Activity [%] | SMILES
11 | COc1cccc(NC(=O)Nc2nnc(-c3ccncc3)s2)c1
36 | COc1cc(/C=C2\C(=O)NN(c3ccc(Cl)c(Cl)c3)C2=O)ccc1O

target: T1, Dual specificity tyrosine-phosphorylation-regulated kinase 2 (Homo sapiens) (UniProt Q92630); assay: Activity against DYRK2 at 10 uM in the presence of 100 uM ATP relative to control
T1 sequence (whole entry): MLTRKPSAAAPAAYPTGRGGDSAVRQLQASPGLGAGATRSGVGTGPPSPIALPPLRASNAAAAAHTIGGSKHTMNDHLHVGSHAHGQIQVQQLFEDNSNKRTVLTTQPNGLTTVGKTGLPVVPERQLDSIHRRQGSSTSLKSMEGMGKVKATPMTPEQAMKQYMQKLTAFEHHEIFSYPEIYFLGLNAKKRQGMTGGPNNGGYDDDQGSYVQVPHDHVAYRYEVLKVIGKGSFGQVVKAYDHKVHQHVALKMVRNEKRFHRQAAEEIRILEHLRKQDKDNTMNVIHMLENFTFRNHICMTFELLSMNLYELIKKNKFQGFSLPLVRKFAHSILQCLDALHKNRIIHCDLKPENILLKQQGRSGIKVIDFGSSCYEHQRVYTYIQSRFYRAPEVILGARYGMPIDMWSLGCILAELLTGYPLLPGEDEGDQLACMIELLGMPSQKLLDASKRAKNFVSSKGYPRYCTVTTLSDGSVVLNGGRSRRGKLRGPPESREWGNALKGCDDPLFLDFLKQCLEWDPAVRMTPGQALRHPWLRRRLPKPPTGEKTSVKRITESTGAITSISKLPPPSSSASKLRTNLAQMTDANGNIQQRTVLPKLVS

Activity [%] | SMILES
77 | COc1cccc(NC(=O)Nc2nnc(-c3ccncc3)s2)c1
59 | COc1cc(/C=C2\C(=O)NN(c3ccc(Cl)c(Cl)c3)C2=O)ccc1O

target: Glycogen synthase kinase-3 beta (Homo sapiens) (UniProt P49841); assay: Activity against GSK3-beta at 10 uM in the presence of 100 uM ATP relative to control
Sequence (P49841 whole entry, looked up): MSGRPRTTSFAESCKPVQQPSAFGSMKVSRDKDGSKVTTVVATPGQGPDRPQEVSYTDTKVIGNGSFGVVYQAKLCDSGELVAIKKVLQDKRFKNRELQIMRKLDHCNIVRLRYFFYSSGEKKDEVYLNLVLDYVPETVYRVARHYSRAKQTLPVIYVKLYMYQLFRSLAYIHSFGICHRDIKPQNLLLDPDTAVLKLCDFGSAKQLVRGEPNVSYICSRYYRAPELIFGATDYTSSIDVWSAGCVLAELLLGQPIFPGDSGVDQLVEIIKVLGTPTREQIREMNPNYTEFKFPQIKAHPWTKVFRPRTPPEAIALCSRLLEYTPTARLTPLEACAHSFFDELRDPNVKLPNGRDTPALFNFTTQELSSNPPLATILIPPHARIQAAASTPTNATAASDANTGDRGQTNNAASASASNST

Activity [%] | SMILES
47 | COc1cccc(NC(=O)Nc2nnc(-c3ccncc3)s2)c1
69 | COc1cc(/C=C2\C(=O)NN(c3ccc(Cl)c(Cl)c3)C2=O)ccc1O

target: Mitogen-activated protein kinase 10 (Homo sapiens) (UniProt P53779); assay: Activity against JNK3 at 10 uM in the presence of 100 uM ATP relative to control
Sequence (P53779 whole entry): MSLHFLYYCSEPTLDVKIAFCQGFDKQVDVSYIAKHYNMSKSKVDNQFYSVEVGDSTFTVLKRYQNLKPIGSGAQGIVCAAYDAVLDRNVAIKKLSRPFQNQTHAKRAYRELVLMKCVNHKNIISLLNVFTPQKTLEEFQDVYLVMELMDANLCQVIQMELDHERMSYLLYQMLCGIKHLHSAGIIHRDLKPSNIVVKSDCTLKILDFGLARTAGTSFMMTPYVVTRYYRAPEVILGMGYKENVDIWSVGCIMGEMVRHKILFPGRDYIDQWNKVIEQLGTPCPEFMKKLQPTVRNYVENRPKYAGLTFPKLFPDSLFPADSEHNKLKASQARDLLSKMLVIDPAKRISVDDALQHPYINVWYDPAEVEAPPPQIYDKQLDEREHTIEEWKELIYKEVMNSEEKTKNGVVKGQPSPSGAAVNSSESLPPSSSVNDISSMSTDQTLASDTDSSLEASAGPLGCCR

Activity [%] | SMILES
98 | COc1cccc(NC(=O)Nc2nnc(-c3ccncc3)s2)c1
86 | COc1cc(/C=C2\C(=O)NN(c3ccc(Cl)c(Cl)c3)C2=O)ccc1O

target: Tyrosine-protein kinase Lck (Homo sapiens) (UniProt P06239); assay: Activity against Lck at 10 uM in the presence of 100 uM ATP relative to control
Sequence (P06239 2-509 limits assumed): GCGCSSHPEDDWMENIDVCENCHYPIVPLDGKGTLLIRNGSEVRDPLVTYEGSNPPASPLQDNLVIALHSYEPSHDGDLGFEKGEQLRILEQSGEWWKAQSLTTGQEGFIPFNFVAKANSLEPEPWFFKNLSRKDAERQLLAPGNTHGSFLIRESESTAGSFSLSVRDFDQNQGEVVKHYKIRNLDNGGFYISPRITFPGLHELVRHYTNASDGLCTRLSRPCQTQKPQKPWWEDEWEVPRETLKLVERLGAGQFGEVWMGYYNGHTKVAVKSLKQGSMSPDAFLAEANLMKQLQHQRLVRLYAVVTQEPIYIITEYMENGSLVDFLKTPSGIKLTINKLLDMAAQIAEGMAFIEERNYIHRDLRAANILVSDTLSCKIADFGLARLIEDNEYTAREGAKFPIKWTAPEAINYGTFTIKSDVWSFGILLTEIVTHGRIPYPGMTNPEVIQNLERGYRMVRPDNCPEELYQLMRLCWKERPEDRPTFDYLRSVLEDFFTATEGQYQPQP

Activity [%] | SMILES
113 | COc1cccc(NC(=O)Nc2nnc(-c3ccncc3)s2)c1
105 | COc1cc(/C=C2\C(=O)NN(c3ccc(Cl)c(Cl)c3)C2=O)ccc1O

target: Mitogen-activated protein kinase 1 (Homo sapiens) (UniProt P28482); assay: Activity against MAPK2 at 10 uM in the presence of 100 uM ATP relative to control
Sequence (P28482 whole entry): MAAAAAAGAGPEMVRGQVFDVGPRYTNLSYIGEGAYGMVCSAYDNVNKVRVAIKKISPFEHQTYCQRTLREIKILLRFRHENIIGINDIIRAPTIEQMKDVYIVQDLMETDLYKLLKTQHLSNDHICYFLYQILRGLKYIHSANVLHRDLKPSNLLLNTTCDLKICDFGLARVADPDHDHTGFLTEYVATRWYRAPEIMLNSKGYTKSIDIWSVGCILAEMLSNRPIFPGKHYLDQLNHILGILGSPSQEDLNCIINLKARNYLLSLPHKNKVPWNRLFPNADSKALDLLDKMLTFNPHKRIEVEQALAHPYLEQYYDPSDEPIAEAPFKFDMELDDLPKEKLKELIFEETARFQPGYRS

Activity [%] | SMILES
138 | COc1cccc(NC(=O)Nc2nnc(-c3ccncc3)s2)c1
122 | COc1cc(/C=C2\C(=O)NN(c3ccc(Cl)c(Cl)c3)C2=O)ccc1O

target: cAMP-dependent protein kinase (PKA) (Homo sapiens) (UniProt P22694+P17612+P22612); assay: Activity against PKA at 10 uM in the presence of 100 uM ATP relative to control; format: protein assay

Activity [%] | SMILES
104 | COc1cccc(NC(=O)Nc2nnc(-c3ccncc3)s2)c1
107 | COc1cc(/C=C2\C(=O)NN(c3ccc(Cl)c(Cl)c3)C2=O)ccc1O

target: Protein kinase C alpha type (Homo sapiens) (UniProt P17252); assay: Activity against PKCalpha at 10 uM in the presence of 100 uM ATP relative to control

Activity [%] | SMILES
83 | COc1cccc(NC(=O)Nc2nnc(-c3ccncc3)s2)c1
78 | COc1cc(/C=C2\C(=O)NN(c3ccc(Cl)c(Cl)c3)C2=O)ccc1O

target: T2, MAP kinase-activated protein kinase 5 (Homo sapiens) (UniProt Q8IW41); assay: Activity against PRAK at 10 uM in the presence of 100 uM ATP relative to control
T2 sequence (whole entry): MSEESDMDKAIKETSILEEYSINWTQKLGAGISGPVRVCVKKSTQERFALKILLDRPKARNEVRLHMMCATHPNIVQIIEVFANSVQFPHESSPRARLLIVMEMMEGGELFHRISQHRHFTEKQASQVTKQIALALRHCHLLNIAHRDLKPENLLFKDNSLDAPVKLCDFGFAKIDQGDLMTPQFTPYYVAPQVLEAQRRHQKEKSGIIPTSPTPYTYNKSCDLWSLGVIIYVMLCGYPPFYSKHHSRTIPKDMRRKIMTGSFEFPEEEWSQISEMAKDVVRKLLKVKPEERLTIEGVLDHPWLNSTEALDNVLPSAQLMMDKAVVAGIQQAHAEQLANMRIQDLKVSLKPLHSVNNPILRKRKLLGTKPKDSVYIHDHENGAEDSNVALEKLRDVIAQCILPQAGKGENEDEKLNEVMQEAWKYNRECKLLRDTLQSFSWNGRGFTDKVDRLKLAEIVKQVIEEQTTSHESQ

Activity [%] | SMILES
69 | COc1cccc(NC(=O)Nc2nnc(-c3ccncc3)s2)c1
71 | COc1cc(/C=C2\C(=O)NN(c3ccc(Cl)c(Cl)c3)C2=O)ccc1O

target: Mitogen-activated protein kinase 14 (Homo sapiens) (UniProt Q16539); assay: Activity against SAPK2-alpha at 10 uM in the presence of 100 uM ATP relative to control
Sequence (Q16539 whole entry): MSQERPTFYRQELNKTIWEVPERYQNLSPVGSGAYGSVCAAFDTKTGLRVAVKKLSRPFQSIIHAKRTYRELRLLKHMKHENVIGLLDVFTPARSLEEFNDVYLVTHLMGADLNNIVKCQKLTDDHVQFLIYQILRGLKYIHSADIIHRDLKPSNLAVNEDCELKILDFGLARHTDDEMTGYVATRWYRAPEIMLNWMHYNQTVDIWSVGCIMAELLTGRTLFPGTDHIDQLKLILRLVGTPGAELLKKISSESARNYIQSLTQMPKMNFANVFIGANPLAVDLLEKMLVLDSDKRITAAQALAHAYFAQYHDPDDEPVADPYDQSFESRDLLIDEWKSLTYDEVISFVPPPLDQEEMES

Activity [%] | SMILES
101 | COc1cccc(NC(=O)Nc2nnc(-c3ccncc3)s2)c1
112 | COc1cc(/C=C2\C(=O)NN(c3ccc(Cl)c(Cl)c3)C2=O)ccc1O

target: Dual specificity tyrosine-phosphorylation-regulated kinase 1A (Mus musculus, UniProt Q61214); assay: Inhibition of mouse Dyrk1A autophosphorylation in HEk293 cells; format: cell-based

SMILES | IC50 [µM]
COc1ccc(O)c(-c2cc(-c3ccccc3Cl)n[nH]2)c1 | 20
CN1C(=O)/C(=C2\SC(Nc3ccc(F)cc3)=NC2=O)c2ccccc21 | 50
C=CCOc1ccc(Br)cc1/C=C1\SC(Nc2ccc(Cl)c(C(=O)O)c2)=NC1=O | 20
CCOC(=O)c1ccc2ncc(C(=O)OCC)c(Nc3ccc(NC(C)=O)cc3)c2c1 | 10

The remaining lines, values ahead:

IC50 [µM] | SMILES
5 | Brc1ccc(Nc2nc(NCc3ccco3)c3ccccc3n2)cc1
50 | CCOC(=O)c1cnc2ccc(C(=O)OC)cc2c1Nc1cccc(C(C)=O)c1
> 50 | Cc1cccc(Nc2nc(-c3c(C)nc4ncccn34)cs2)c1
5 | COc1cccc(NC(=O)Nc2nnc(-c3ccncc3)s2)c1
> 50 | COc1cc(/C=C2\C(=O)NN(c3cccc(Cl)c3)C2=O)ccc1O
2.5 | COc1cc(/C=C2\C(=O)NN(c3ccc(Cl)c(Cl)c3)C2=O)ccc1O
50 | CCOC(=O)c1ccc2ncc(C(=O)OCC)c(Nc3ccc(C)c(Br)c3)c2c1

target: Dual specificity tyrosine-phosphorylation-regulated kinase 1A (Mus musculus) (UniProt Q61214); assay: Inhibition of mouse Dyrk1A autophosphorylation in HEk293 cells at 10 uM; format: cell-based

SMILES | inhibition
COc1ccc(O)c(-c2cc(-c3ccccc3Cl)[nH]n2)c1 | 43%
CN1C(=O)/C(=C2\SC(Nc3ccc(F)cc3)=NC2=O)c2ccccc21 | 12%
C=CCOc1ccc(Br)cc1/C=C1\SC(Nc2ccc(Cl)c(C(=O)O)c2)=NC1=O | inactive
CCOC(=O)c1ccc2ncc(C(=O)OCC)c(Nc3ccc(NC(C)=O)cc3)c2c1 | 52%

Second part, the compound after the results:

inhibition | SMILES
8% | Brc1ccc(Nc2nc(NCc3ccco3)c3ccccc3n2)cc1
51% | CCOC(=O)c1cnc2ccc(C(=O)OC)cc2c1Nc1cccc(C(C)=O)c1
25% | Cc1cccc(Nc2nc(-c3c(C)nc4ncccn34)cs2)c1
41% | COc1cccc(NC(=O)Nc2nnc(-c3ccncc3)s2)c1
74% | COc1cc(/C=C2\C(=O)NN(c3cccc(Cl)c3)C2=O)ccc1O
82% | COc1cc(/C=C2\C(=O)NN(c3ccc(Cl)c(Cl)c3)C2=O)ccc1O
13% | CCOC(=O)c1ccc2ncc(C(=O)OCC)c(Nc3ccc(C)c(Br)c3)c2c1

target: Tyrosine-protein kinase ABL1 (Homo sapiens) (UniProt P00519); assay: Activity against Abl at 10 uM in the presence of 100 uM ATP relative to control
Sequence (P00519 whole entry): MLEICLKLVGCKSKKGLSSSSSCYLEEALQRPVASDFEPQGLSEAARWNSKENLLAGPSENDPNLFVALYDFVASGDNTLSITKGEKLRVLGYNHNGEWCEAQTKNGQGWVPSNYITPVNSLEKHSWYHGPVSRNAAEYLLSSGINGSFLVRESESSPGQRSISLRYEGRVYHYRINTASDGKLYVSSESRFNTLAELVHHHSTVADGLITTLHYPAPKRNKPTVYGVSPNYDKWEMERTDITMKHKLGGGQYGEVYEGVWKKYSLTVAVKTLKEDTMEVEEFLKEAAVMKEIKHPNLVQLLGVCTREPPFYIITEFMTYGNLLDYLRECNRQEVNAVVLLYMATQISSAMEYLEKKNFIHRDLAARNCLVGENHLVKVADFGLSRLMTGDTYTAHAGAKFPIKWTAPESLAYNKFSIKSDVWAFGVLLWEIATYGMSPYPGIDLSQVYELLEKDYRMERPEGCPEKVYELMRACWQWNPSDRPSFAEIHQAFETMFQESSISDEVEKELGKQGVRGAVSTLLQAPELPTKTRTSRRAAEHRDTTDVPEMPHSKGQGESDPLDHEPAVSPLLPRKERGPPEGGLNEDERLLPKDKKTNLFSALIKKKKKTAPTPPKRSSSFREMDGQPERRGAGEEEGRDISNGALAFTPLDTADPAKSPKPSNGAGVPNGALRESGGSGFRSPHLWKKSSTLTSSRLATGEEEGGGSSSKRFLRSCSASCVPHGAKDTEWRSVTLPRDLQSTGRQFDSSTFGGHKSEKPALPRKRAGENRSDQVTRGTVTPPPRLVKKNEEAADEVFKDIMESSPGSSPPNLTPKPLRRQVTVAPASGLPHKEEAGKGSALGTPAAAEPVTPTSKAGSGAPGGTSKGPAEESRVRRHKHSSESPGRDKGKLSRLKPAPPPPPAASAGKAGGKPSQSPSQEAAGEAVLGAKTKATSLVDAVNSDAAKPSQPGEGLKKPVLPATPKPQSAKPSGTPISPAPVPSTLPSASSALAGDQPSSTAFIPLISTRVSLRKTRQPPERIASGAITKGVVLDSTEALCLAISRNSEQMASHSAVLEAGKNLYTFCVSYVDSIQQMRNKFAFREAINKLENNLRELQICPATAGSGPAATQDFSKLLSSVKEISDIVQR

Activity [%] | SMILES
96 | COc1cccc(NC(=O)Nc2nnc(-c3ccncc3)s2)c1
94 | COc1cc(/C=C2\C(=O)NN(c3ccc(Cl)c(Cl)c3)C2=O)ccc1O
